These results are taken from US7799776B2, “Indoleamine 2,3-dioxygenase (IDO) inhibitors” (The University of British Columbia, priority 2004, dated 2010).

Where two headings read alike, the source gives them in different places.

Assay [1] has as its target recombinant human IDO (Homo sapiens, UniProt P14902). Put plainly: IDO inhibition kinetics (N-formylkynurenine formation, absorbance at 321 nm). It is filed as biochemical. The settings on record: for manner of IDO inhibition: assay repeated using differing concentrations. As for the experimental part: The following reaction (Sono, M., Cady, S. G. Biochemistry 28, 5392-5399 (1989)) was used to measure the kinetics of inhibition of IDO using compounds of this invention as well as other compounds for comparison, as listed in Table 4.
A solution of 0.1M potassium phosphate buffer (pH 6.5; optimal at 37° C.), 25 μM methylene blue, 200 μg/ml of catalase, 10 mM ascorbic acid, 50 nM of recombinant human IDO and 100 μM L-Tryptophan was prepared. The rate of product formation (Δε321=3.75 mM^−1 cm^−1 for N-formylkynurenine) was determined from the slope of the initial linear absorbance increase at 321 nm as a function of time.

The target of assay [2] is purified, human IDO (Homo sapiens, UniProt P14902). Put plainly: In vitro IDO activity assay (kynurenine adduct detected at 480 nm) used for bioassay guided fractionation. It is filed as biochemical. The conditions noted are these: extracts and compounds identified by bioassay guided fractionation. The protocol: Various in vitro assays (see for example Takikawa, et al. J. Biol. Chem. 263, 2041-2048 (1988)) may be used to screen (e.g. high-throughput screening) or test reaction products or extracts obtained natural sources for IDO inhibition activity or to determine the kinetics of IDO inhibition. For example, IDO activity may be assayed by means of a reaction mixture (100 microlitre total volume) containing potassium phosphate buffer (50 mM, pH 6.5), ascorbic acid (20 mM), catalase (200 microgram/mL), methylene blue ([…]), L-tryptophan ([…]), and purified, human IDO. The reaction shown below may be allowed to proceed for 40 min (37° C.) and stopped by the addition of 20 microlitre of 30% (w/v) trichloroacetic acid. The N-formyl kynurenine formed from tryptophan in the reaction mixture during this time is then converted to kynurenine by incubating the reaction mixture at 65° C. for 15 minutes. After cooling the reaction mixture to room temperature, an equal volume of 2% (w/v) p-dimethylamino benzaldehyde in acetic acid may be added to convert the kynurenine present in the reaction mixture to a yellow adduct that can be detected at 480 nm. A standard curve for this latter reaction may be constructed with the use of standard solutions prepared from authentic L-kynurenine. Protein concentration may be determined by the Coomassie blue dye-binding method of Bradford with bovine serum albumin as a standard. (Takikawa et al, J. Biol. Chem. 263, 2041-2048).
Crude extracts from the marine hydroid Garveia annula collected in British Columbia and the sponge Xestospongia sp. collected in Papua New Guinea show activity in the aforementioned assay. […] Annulins A and B, garveatins A and C, and 2-hydroxygarvin A have been previously reported (Fahy et al J. Org. Chem., (1985), 50, 1149-50; J. Org. Chem., (1986), 51, 57-61; J. Org. Chem., (1986), 51, 5145-48; Can. J. Chem., (1987), 65, 376-83), but were not known to be IDO inhibitors. Annulin C, Garvalone C and garveatins E and F are novel. […] Xestoquinone, adociaquinone A, and adociaquinone B had been previously isolated from sponge extracts and their structures have been reported in the literature (Schmitz and Bloor J. Org. Chem. (1988), 53, 3922-3925), but were not known as IDO inhibitors.

Assay [3] has as its target IDO (Oryctolagus cuniculus, UniProt G1SJI2). The settings on record: tryptophan (substrate) analogues; Sono and Cady 1989, Cady and Sono 1991; cited from earlier work.
Where [4] appears, read: 50 nM recombinant human IDO, 100 μM L-Tryptophan, pH 6.5, read-out: Ki.

Sequence of purified, human IDO (P14902 whole entry): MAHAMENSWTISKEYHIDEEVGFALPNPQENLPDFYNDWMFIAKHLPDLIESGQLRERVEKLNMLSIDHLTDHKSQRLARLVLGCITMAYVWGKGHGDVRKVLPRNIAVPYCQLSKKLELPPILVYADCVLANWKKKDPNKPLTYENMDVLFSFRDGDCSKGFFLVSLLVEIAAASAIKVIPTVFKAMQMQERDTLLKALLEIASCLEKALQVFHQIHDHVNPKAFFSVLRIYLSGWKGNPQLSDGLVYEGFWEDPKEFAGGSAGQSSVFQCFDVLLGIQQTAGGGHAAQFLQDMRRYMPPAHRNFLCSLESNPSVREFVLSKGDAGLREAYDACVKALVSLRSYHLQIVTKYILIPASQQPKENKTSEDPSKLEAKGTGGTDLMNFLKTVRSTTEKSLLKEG
Sequence of recombinant human IDO (P14902 whole entry): as above
Sequence of IDO (G1SJI2 1-402): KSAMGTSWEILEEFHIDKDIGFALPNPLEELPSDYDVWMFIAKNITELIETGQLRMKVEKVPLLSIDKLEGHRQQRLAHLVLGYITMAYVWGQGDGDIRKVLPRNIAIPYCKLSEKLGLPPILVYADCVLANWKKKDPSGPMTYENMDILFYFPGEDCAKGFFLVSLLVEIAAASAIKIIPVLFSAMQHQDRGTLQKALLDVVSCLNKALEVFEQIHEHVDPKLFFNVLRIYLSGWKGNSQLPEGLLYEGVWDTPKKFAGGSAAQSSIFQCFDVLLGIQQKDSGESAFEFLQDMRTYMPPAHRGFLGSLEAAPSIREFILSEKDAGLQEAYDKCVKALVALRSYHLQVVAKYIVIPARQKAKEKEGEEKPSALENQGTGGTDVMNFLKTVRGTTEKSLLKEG

By Ki is commonly meant a measure of affinity in units of concentration, obtained from inhibition or displacement. As for `CC1Cc2c(c(O)cc3cc4c(c(O)c23)OC(C)(C)C4(C)C)C(=O)O1` (centres unmarked) [Garvin C], the Ki in assay [1] (setting [4]) is around 2100 µM. The same measure, in the same setting: the value for Doxorubicin [reference compound] was 46000 µM. In the case of `CC12CCCc3coc(c31)C(=O)c1cc3c(cc12)C(=O)C1=C(NCCS1(=O)=O)C3=O` (centres unmarked) [Adociaquinone B], the Ki in assay [1] (setting [4]) is 0.025 µM. Further, the “IDO inhibition activity (qualitative)” value in assay [2] is “active IDO inhibitors”. In the case of `Oc1ccc(O)cc1` [Dihydroquinone, reference compound], the inhibition constant Ki in assay [1] (setting [4]) was above 5000 µM. In the case of `NC(Cc1coc2ccccc12)C(=O)O` (racemic) [beta-(3-benzofuranyl)-DL-alanine], the “manner of IDO inhibition” value in assay [3] is “competitive inhibitors”.

Consider `CC(=O)c1c(C)cc2cc3c(c(O)c2c1O)C(=O)C(C)=C(O)C3(C)C` [Garveatin A], for which, in assay [1] (setting [4]), the inhibition constant Ki was 3.2 µM. The “IDO inhibition activity (qualitative)” value in assay [2] is recorded as “active IDO inhibitors”.

For `CCc1c(C)cc2c(c1O)C(=O)C1=C(C2=O)C(C)(C)OC1(O)C(=O)OC` (centres unmarked) [Annulin A], the inhibitory constant (Ki) in assay [1] (setting [4]) came out at 0.694 µM. For the same compound, in assay [2], the “IDO inhibition activity (qualitative)” value was “active IDO inhibitors”.

On to `COc1c(C(C)=O)c(C)cc2cc3c(c(O)c12)C(=O)C(C)(C)C(=O)C3(C)C` [Garveatin C], for which the inhibition constant Ki in assay [1] (setting [4]) came to 1.18 µM. Further, in assay [2], the “IDO inhibition activity (qualitative)” value is given as “active IDO inhibitors”. `O=C1C=CC(=O)c2c(O)cccc21` [Juglone, reference compound]: the Ki in assay [1] (setting [4]) was 0.048 µM. For the compound `CC1=CC(=O)c2ccccc2C1=O` [Menadione (Vitamin K3), Menadione, reference compound], in assay [1] (setting [4]), the inhibition constant Ki worked out at 0.58 µM. In addition, the “manner of IDO inhibition” value in assay [1] is “non-competitive”. For the same compound, the “IDO inhibition activity (qualitative)” value in assay [2] was “shown to be an IDO inhibitor”. For the compound `COC1=CC(=O)c2ccccc2C1=O`, the inhibition constant (Ki) in assay [1] (setting [4]) is 0.53 µM.

Turning to `CC12CCCc3coc(c31)C(=O)c1cc3c(cc12)C(=O)C=CC3=O` (centres unmarked) [Xestoquinone], in assay [1] (setting [4]), the Ki came to 0.181 µM. Moreover, the “IDO inhibition activity (qualitative)” value in assay [2] is “active IDO inhibitors”. As for `O=C1C=C(O)C(=O)c2ccccc21`, in assay [1] (setting [4]), the inhibition constant Ki came to 100 µM. Turning to `CCc1c(C)cc2c(c1O)C(=O)C1=C(C2=O)C(C)(C)OC1(OC)C(=O)OC` (centres unmarked) [Annulin C], the Ki in assay [1] (setting [4]) worked out at 0.144 µM. Besides, the “manner of IDO inhibition” value in assay [1] is on record as “non-competitive”. For the same compound, the “IDO inhibition activity (qualitative)” value in assay [2] was “active IDO inhibitors”.

Turning to `CC(=O)CC(c1ccccc1)c1c(O)c2ccccc2oc1=O` (centres unmarked) [Warfarin, reference compound], in assay [1] (setting [4]), the Ki is above 32 µM. Regarding `O=c1ccc2ccccc2o1` [Coumarin, reference compound], the Ki in assay [1] (setting [4]) was 1110 µM. Still for that read-out and setting: the value for `O=C1C=Cc2ccccc2C1=O` [1,2 naphthoquinone, reference compound] was 3.4 µM. Regarding `CC12CCCc3coc(c31)C(=O)c1cc3c(cc12)C(=O)C1=C(C3=O)S(=O)(=O)CCN1` (centres unmarked) [Adociaquinone A], in assay [1] (setting [4]), the Ki came to 0.086 µM. Moreover, the “IDO inhibition activity (qualitative)” value in assay [2] is “active IDO inhibitors”. Consider `O=C1c2ccccc2C(=O)c2c1ccc(O)c2O` [Alizarin, reference compound], for which, in assay [1] (setting [4]), the Ki is 42 µM.

For the compound `CCc1c(C)cc2cc3c(c(O)c2c1O)C(=O)C(C)(O)C(=O)C3(C)C` (centres unmarked) [Garveatin F], in assay [1] (setting [4]), the Ki is 1.42 µM. The “IDO inhibition activity (qualitative)” value in assay [2] is “active IDO inhibitors”. In the case of `CCC1=C(C)C(=O)c2cc3c(c(O)c2C1=O)C(=O)C(C)=C(O)C3(C)C` [Garveatin E], in assay [1] (setting [4]), the Ki was 3.1 µM. The “IDO inhibition activity (qualitative)” value in assay [2] is given as “active IDO inhibitors”. Regarding `O=C1C(Cl)=C(Cl)C(=O)c2ccccc21` [Dichlone, reference compound], the Ki in assay [1] worked out at 0.045 µM. In the case of `CCc1c(C)cc2c(c1O)C(=O)C1=C(C2=O)C(C)(C)C(=O)C(C)(C(=O)OC)O1` (centres unmarked) [Annulin B], the Ki in assay [1] (setting [4]) was 0.123 µM. For the same compound, the “IDO inhibition activity (qualitative)” value in assay [2] was “active IDO inhibitors”. Take `Cn1cc(C[C@H](N)C(=O)O)c2ccccc21` [1-methyl-L-tryptophan (1MT), 1-methyl-L-tryptophan]: the “manner of IDO inhibition” value in assay [3] is reported as “competitive inhibitors”. For `CCCc1c(C(=O)OC)c(OC)cc2cc3c(c(O)c12)C(=O)C(C)(O)C(=O)C3(C)C` (centres unmarked) [2-Hydroxygarvin A], the inhibition constant Ki in assay [1] (setting [4]) was determined as 2.3 µM. Also, the “IDO inhibition activity (qualitative)” value in assay [2] is “active IDO inhibitors”. As to `CC1=C(C/C=C(\C)CCC[C@H](C)CCC[C@H](C)CCCC(C)C)C(=O)c2ccccc2C1=O` [Vitamin K1, reference compound], in assay [1] (setting [4]), the Ki was above 40 µM. In the case of `COC(=O)c1c(C)cc2cc3c(c(O)c2c1OC)C(=O)C(C)(CC(C)=O)C(=O)C3(C)C` (centres unmarked) [Garvalone C], the Ki in assay [1] (setting [4]) is 1.25 µM.
